Assay results published in BindingDB's records for doi:10.1021/jm00124a025 (Smith Kline & French Laboratories, 1989).

Biological target: Vasopressin V2 receptor (Canis lupus familiaris)
Test: Binding affinity of compound towards Vasopressin receptor by binding [3H]LVP to dog renal medullary preparation.

CCOc1ccc(C[C@@H]2NC(=O)CC3(CCC(C)CC3)SSC[C@H](C(=O)N[C@@H](CCCN=C(N)N)C(=O)N[C@@H](CCCN=C(N)N)C(N)=O)NC(=O)[C@H](CC(N)=O)NC(=O)[C@H](C(C)C)NC(=O)[C@H](Cc3ccccc3)NC2=O)cc1 (some centres not stated) [19-Benzyl-13-carbamoylmethyl-22-(4-ethoxy-benzyl)-16-isopropyl-3-methyl-12,15,18,21,24-pentaoxo-7,8-dithia-11,14,17,20,23-pentaaza-spiro[5.19]pentacosane-10-carboxylic acid [1-(1-carbamoyl-4-guanidino-butylcarbamoyl)-4-guanidino-butyl]-amide] gave a Ki of 0.7 nM.

CCOc1ccc(C[C@@H]2NC(=O)CC3(CCCCC3)SSC[C@H](C(=O)N[C@@H](CCCN=C(N)N)C(=O)N[C@@H](CCCN=C(N)N)C(N)=O)NC(=O)[C@@H](CC(N)=O)NC(=O)[C@H](C(C)C)NC(=O)[C@@H](Cc3ccccc3)NC2=O)cc1 [19-Benzyl-13-carbamoylmethyl-22-(4-ethoxy-benzyl)-16-isopropyl-12,15,18,21,24-pentaoxo-7,8-dithia-11,14,17,20,23-pentaaza-spiro[5.19]pentacosane-10-carboxylic acid [1-(1-carbamoyl-4-guanidino-butylcarbamoyl)-4-guanidino-butyl]-amide] was tested, and the Ki was 0.5 nM.
